Source: US8431704B2, “Quinoline or isoquinoline substituted P2X7 antagonists” (Janssen Pharmaceutica NV, priority 2008, dated 2013)

What follows are molecules tested against T1, hP2X7 (Homo sapiens, UniProt Q99572) (assay: P2X7 antagonism: ligand-induced Ca2+ flux in 1321N1 astrocytoma cells overexpressing hP2X7). Conditions: pIC50 = -log(IC50), read-out: hP2RX7pIC50 (mean pIC50 values) (converted).
T1 construct: expressed in transfected cells; host or cells: 1321N1 astrocytoma cells
T1 sequence (Q99572 1-595): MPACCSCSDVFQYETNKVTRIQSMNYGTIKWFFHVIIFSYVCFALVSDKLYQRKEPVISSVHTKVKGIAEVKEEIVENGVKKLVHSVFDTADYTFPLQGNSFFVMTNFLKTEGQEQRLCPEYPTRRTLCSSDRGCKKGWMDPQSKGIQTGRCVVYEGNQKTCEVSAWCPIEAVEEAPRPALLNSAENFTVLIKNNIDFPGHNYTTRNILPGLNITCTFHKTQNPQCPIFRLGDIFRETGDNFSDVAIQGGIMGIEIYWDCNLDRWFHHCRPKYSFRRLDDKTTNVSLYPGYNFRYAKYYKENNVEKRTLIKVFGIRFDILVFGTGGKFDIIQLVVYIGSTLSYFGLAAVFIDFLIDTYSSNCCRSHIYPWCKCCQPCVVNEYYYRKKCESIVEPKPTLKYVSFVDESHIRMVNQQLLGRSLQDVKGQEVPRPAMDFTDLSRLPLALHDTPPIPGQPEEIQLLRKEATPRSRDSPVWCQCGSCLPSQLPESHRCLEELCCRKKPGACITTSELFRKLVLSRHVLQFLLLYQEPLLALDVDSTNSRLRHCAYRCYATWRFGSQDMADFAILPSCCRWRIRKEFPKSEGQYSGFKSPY
Format: cell-based
Method: Extracellular binding of ATP to P2X7 that is expressed in the cell-membrane opens the ligand gated cation channel and allows Ca^2+ entry into the cell. This ligand-induced Ca^2+ flux was measured in 1321N1 astrocytoma cells overexpressing hP2X7 for the compounds of the present invention.
The calcium assay kit used (Molecular Devices, R8090), provides a Ca^2+ sensitive dye together with a quenching dye. However, no specifications are given by the manufacturer. The kit most likely consists of a membrane permeable acetoxymethyl (AM) ester of a fluorescent Ca^2+ indicator, such as fluo-4 or fluo-3. Upon cellular uptake, the AM esters get cleaved by esterases, liberating the Ca^2+-sensitive dye which can then bind calcium. The dyes have an absorption spectrum compatible with excitation at 488 nm by argon laser sources and a large fluorescence intensity increase in response to Ca^2+ binding without an accompanying spectral shift. Emission wavelength is in the range of 510-560 nm.
The fluorescence, and thus the changes in intracellular [Ca^2+] in the 1321N1 cells was monitored in time before and after addition of the agonist. The effect of the antagonist was measured as % control and as IC50.

In order of rising IC50:
1. O=C(NCC(c1cnc(OCC2CC2)nc1)N1CCC(F)(F)CC1)c1cccc2nc(NCC3CC3)ccc12 (stereo not shown) [Compound 234]  0.0269 µM
2. CC(C)Oc1ncc(C(CNC(=O)c2cccc3nc(NCC4CC4)ccc23)N2CCOCC2)cn1 (stereo not shown) [Compound 227]  0.0331 µM
3. O=C(NCC(c1cnc(OC2CCC2)nc1)N1CCC(F)(F)CC1)c1cccc2nc(NC3CC3)ccc12 (stereo not shown) [Compound 214]  0.0339 µM
4. CC(C)Oc1ncc(C(CNC(=O)c2cccc3nc(NC4CC4)ccc23)N2CCC(F)(F)CC2)cn1 (stereo not shown) [Compound 236]  0.0347 µM
5. O=C(NCC(c1cnc(C2CCCC2)nc1)N1CCC(F)(F)CC1)c1cccc2nc(NC3CC3)ccc12 (stereo not shown) [Compound 238]  0.0389 µM
6. CCOc1ncc(C(CNC(=O)c2cccc3nc(N4CCCC4)ccc23)N2CCC(F)(F)CC2)cn1 (stereo not shown) [Compound 212]  0.0417 µM
7. O=C(NCC(c1cncnc1)N1CCC(F)(F)CC1)c1cccc2nc(N3CCCC3)ccc12 (stereo not shown) [Compound 208]  0.0457 µM
8. O=C(NCC(c1cnc(OC2CCC2)nc1)N1CCC(F)(F)CC1)c1cccc2nc(N3CCCC3)ccc12 (stereo not shown) [Compound 204]  0.0479 µM
9. CCc1ncc(C(CNC(=O)c2cccc3nc(NCC4CC4)ccc23)N2CCC(F)(F)CC2)cn1 (stereo not shown) [Compound 217]  0.0479 µM
10. CCOc1ncc(C(CNC(=O)c2cccc3nc(NCC4CC4)ccc23)N2CCOCC2)cn1 (stereo not shown) [Compound 243]  0.0501 µM
11. COc1ncc(C(CNC(=O)c2cccc3nc(N4CCN(C(C)C)CC4)ccc23)N2CCC(F)(F)CC2)cn1 (stereo not shown) [Compound 200]  0.0513 µM
12. CCOc1ncc(C(CNC(=O)c2cccc3nc(N4CCOCC4)ccc23)N2CCOCC2)cn1 (stereo not shown) [Compound 228]  0.0513 µM
13. O=C(NCC(c1cnc(C(F)(F)F)nc1)N1CCOCC1)c1cccc2nc(NC3CCC3)ccc12 (stereo not shown) [Compound 183]  0.0537 µM
14. O=C(NCC(c1cnc(OC2CCC2)nc1)N1CCC(F)(F)CC1)c1cccc2nc(N3CCOCC3)ccc12 (stereo not shown) [Compound 239]  0.0537 µM
15. COc1ncc(C(CNC(=O)c2cccc3nc(NC4CC4)ccc23)N2CCC(F)(F)CC2)cn1 (stereo not shown) [Compound 192]  0.055 µM
16. CC(C)Oc1ncc(C(CNC(=O)c2cccc3nc(N4CCOCC4)ccc23)N2CCC(F)(F)CC2)cn1 (stereo not shown) [Compound 235]  0.0562 µM
17. CC(=O)N1CCN(c2ncc(C(CNC(=O)c3cccc4nc(NCC5CC5)ccc34)N3CCC(F)(F)CC3)cn2)CC1 (stereo not shown) [Compound 240]  0.0575 µM
18. CCCNc1ccc2c(C(=O)NCC(c3cnc(C(F)(F)F)nc3)N3CCOCC3)cccc2n1 (stereo not shown) [Compound 184]  0.0617 µM
19. O=C(NCC(c1cnc(-c2ccccc2)nc1)N1CCC(F)(F)CC1)c1cccc2nc(NC3CC3)ccc12 (stereo not shown) [Compound 193]  0.0617 µM
20. O=C(NCC(c1cnc(-c2ccccc2)nc1)N1CCC(F)(F)CC1)c1cccc2nc(N3CCOCC3)ccc12 (stereo not shown) [Compound 191]  0.0646 µM
21. O=C(NCC(c1cnc(N2CCOCC2)nc1)N1CCC(F)(F)CC1)c1cccc2nc(NC3CC3)ccc12 (stereo not shown) [Compound 205]  0.0646 µM
22. CC(=O)N1CCN(c2ncc(C(CNC(=O)c3cccc4nc(N5CCCC5)ccc34)N3CCC(F)(F)CC3)cn2)CC1 (stereo not shown) [Compound 222]  0.0661 µM
23. CC(C)N1CCN(c2ccc3c(C(=O)NCC(c4cnc(N5CCOCC5)nc4)N4CCC(F)(F)CC4)cccc3n2)CC1 (stereo not shown) [Compound 203]  0.0676 µM
24. CCc1ncc(C(CNC(=O)c2cccc3nc(NC4CC4)ccc23)N2CCC(F)(F)CC2)cn1 (stereo not shown) [Compound 221]  0.0676 µM
25. CN(C)c1ncc(C(CNC(=O)c2cccc3nc(N4CCOCC4)ccc23)N2CCC(F)(F)CC2)cn1 (stereo not shown) [Compound 188]  0.0692 µM
26. CCOc1ncc(C(CNC(=O)c2cccc3nc(NC4CC4)ccc23)N2CCOCC2)cn1 (stereo not shown) [Compound 229]  0.0692 µM
27. CN(C)c1ncc(C(CNC(=O)c2cccc3nc(NC4CC4)ccc23)N2CCC(F)(F)CC2)cn1 (stereo not shown) [Compound 195]  0.0724 µM
28. O=C(NCC(c1cnc(N2CCCC2)nc1)N1CCC(F)(F)CC1)c1cccc2nc(NC3CC3)ccc12 (stereo not shown) [Compound 190]  0.0776 µM
29. CN1CCN(c2ccc3c(C(=O)NCC(c4cnc(C(F)(F)F)nc4)N4CCOCC4)cccc3n2)CC1 (stereo not shown) [Compound 198]  0.0776 µM
30. O=C(NCC(c1cncnc1)N1CCC(F)(F)CC1)c1cccc2nc(NCC3CC3)ccc12 (stereo not shown) [Compound 211]  0.0794 µM
31. CC(C)c1ncc(C(CNC(=O)c2cccc3nc(NCC4CC4)ccc23)N2CCOCC2)cn1 (stereo not shown) [Compound 244]  0.0794 µM
32. CCc1ncc(C(CNC(=O)c2cccc3nc(N4CCOCC4)ccc23)N2CCC(F)(F)CC2)cn1 (stereo not shown) [Compound 220]  0.0832 µM
33. Nc1ncc(C(CNC(=O)c2cccc3nc(N4CCOCC4)ccc23)N2CCC(F)(F)CC2)cn1 (stereo not shown) [Compound 187]  0.0871 µM
34. O=C(NCC(c1cnc(-c2ccccc2)nc1)N1CCC(F)(F)CC1)c1cccc2nc(NCC3CC3)ccc12 (stereo not shown) [Compound 237]  0.0891 µM
35. CC(C)N1CCN(c2ccc3c(C(=O)NCC(c4cnc(C5CCCC5)nc4)N4CCC(F)(F)CC4)cccc3n2)CC1 (stereo not shown) [Compound 213]  0.1 µM
36. O=C(NCC(c1cnc(NC2CC2)nc1)N1CCC(F)(F)CC1)c1cccc2nc(N3CCCC3)ccc12 (stereo not shown) [Compound 216]  0.1 µM
37. O=C(NCC(c1cnc(N2CCCC2)nc1)N1CCC(F)(F)CC1)c1cccc2nc(N3CCCC3)ccc12 (stereo not shown) [Compound 225]  0.102 µM
38. CN(C)c1ncc(C(CNC(=O)c2cccc3nc(N4CCCC4)ccc23)N2CCC(F)(F)CC2)cn1 (stereo not shown) [Compound 206]  0.105 µM
39. O=C(NCC(c1cnc(NC2CC2)nc1)N1CCC(F)(F)CC1)c1cccc2nc(N3CCOCC3)ccc12 (stereo not shown) [Compound 189]  0.11 µM
40. CC(C)N1CCN(c2ccc3c(C(=O)NCC(c4cnc(-c5ccccc5)nc4)N4CCC(F)(F)CC4)cccc3n2)CC1 (stereo not shown) [Compound 201]  0.115 µM
41. O=C(NCC(c1cnc(N2CCNCC2)nc1)N1CCC(F)(F)CC1)c1cccc2nc(NC3CC3)ccc12 (stereo not shown) [Compound 202]  0.115 µM
42. O=C(NCC(c1cnc(N2CCOCC2)nc1)N1CCC(F)(F)CC1)c1cccc2nc(N3CCCC3)ccc12 (stereo not shown) [Compound 224]  0.115 µM
43. CC(C)c1ncc(C(CNC(=O)c2cccc3nc(NC4CC4)ccc23)N2CCOCC2)cn1 (stereo not shown) [Compound 231]  0.115 µM
44. CC(C)Oc1ncc(C(CNC(=O)c2cccc3nc(NC4CC4)ccc23)N2CCOCC2)cn1 (stereo not shown) [Compound 242]  0.115 µM
45. CC(C)N1CCN(c2ccc3c(C(=O)NCC(c4cnc(N(C)C)nc4)N4CCC(F)(F)CC4)cccc3n2)CC1 (stereo not shown) [Compound 209]  0.117 µM
46. CC(C)Oc1ncc(C(CNC(=O)c2cccc3nc(N4CCOCC4)ccc23)N2CCOCC2)cn1 (stereo not shown) [Compound 241]  0.117 µM
47. O=C(NCC(c1cnc(C(F)(F)F)nc1)N1CCOCC1)c1cccc2nc(N3CCN(CCO)CC3)ccc12 (stereo not shown) [Compound 197]  0.12 µM
48. O=C(NCC(c1cnc(N2CCCC2)nc1)N1CCOCC1)c1cccc2nc(N3CCCC3)ccc12 (stereo not shown) [Compound 219]  0.126 µM
49. COCCCNc1ccc2c(C(=O)NCC(c3cnc(C(F)(F)F)nc3)N3CCOCC3)cccc2n1 (stereo not shown) [Compound 185]  0.129 µM
50. CCc1ncc(C(CNC(=O)c2cccc3nc(NC4CC4)ccc23)N2CCOCC2)cn1 (stereo not shown) [Compound 207]  0.138 µM
51. CC(C)c1ncc(C(CNC(=O)c2cccc3nc(N4CCOCC4)ccc23)N2CCOCC2)cn1 (stereo not shown) [Compound 230]  0.141 µM
52. CN(C)c1ncc(C(CNC(=O)c2cccc3nc(NC4CC4)ccc23)N2CCOCC2)cn1 (stereo not shown) [Compound 233]  0.148 µM
53. Nc1ncc(C(CNC(=O)c2cccc3nc(N4CCCC4)ccc23)N2CCC(F)(F)CC2)cn1 (stereo not shown) [Compound 226]  0.162 µM
54. CN(C)c1ncc(C(CNC(=O)c2cccc3nc(N4CCOCC4)ccc23)N2CCOCC2)cn1 (stereo not shown) [Compound 232]  0.17 µM
55. CC(C)N1CCN(c2ccc3c(C(=O)NCC(c4cnc(N5CCCC5)nc4)N4CCC(F)(F)CC4)cccc3n2)CC1 (stereo not shown) [Compound 215]  0.174 µM
56. Nc1ncc(C(CNC(=O)c2cccc3nc(NC4CC4)ccc23)N2CCC(F)(F)CC2)cn1 (stereo not shown) [Compound 194]  0.178 µM
57. CC(C)C1CCN(c2ccc3c(C(=O)NCC(c4cnc(C(F)(F)F)nc4)N4CCOCC4)cccc3n2)CC1 (stereo not shown) [Compound 196]  0.195 µM
58. O=C(NCC(c1cnc(N2CCNCC2)nc1)N1CCC(F)(F)CC1)c1cccc2nc(NCC3CC3)ccc12 (stereo not shown) [Compound 223]  0.195 µM
59. CN(C)c1ncc(C(CNC(=O)c2cccc3nc(N4CCCC4)ccc23)N2CCOCC2)cn1 (stereo not shown) [Compound 218]  0.316 µM
60. CC(C)c1ncc(C(CNC(=O)c2cccc3nc(N4CCCC4)ccc23)N2CCOCC2)cn1 (stereo not shown) [Compound 210]  0.372 µM
61. CC(C)N1CCN(c2ccc3c(C(=O)NCC(c4cnc(N(C)C)nc4)N4CCOCC4)cccc3n2)CC1 (stereo not shown) [Compound 199]  0.407 µM
